From patent US6355799B1, “Substituted benzene compounds, process for their preparation, and herbicidal and defoliant compositions containing them” (ISK Americas Incorporated, priority 1997, dated 2002)

What was measured:
Assay type in all cases: in vivo
[1] = test system: redroot pigweed (Amaranthus retroflexus, AMARE); assay: Pre-emerge test, greenhouse herbicide activity screening; conditions: pre-emerge, phytotoxicity rating 0-100 at 14 days after application
Procedure, shortened: (§1)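 Compounds in acetone were track-sprayed at 15-1000 g ai/ha (187 l/ha) on sandy loam pots: pre-emerge one day after seeding, post-emerge at 2-3 leaf stage with 0.25% v/v non-ionic surfactant. Phytotoxicity was rated 14 days later on a 0 (no damage) to 100 (complete death) scale.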

[2] = test system: barnyardgrass (Echinochloa crus-galli, ECHCG); assay: as above; conditions: pre-emerge, phytotoxicity rating 0-100 at 14 days after application
Procedure, shortened: (§2)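 Compounds in acetone were track-sprayed at 187 l/ha, 15–1000 g ai/ha, onto sandy loam pots. Pre-emerge seeds were sown one day before spraying, with surface watering afterwards. Post-emerge plants were at the 2–3 leaf stage and sprayed with 0.25% v/v non-ionic surfactant. Injury was rated 0–100 at 14 days.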

[3] = test system: green foxtail (Setaria viridis, SETVI); assay: as above; conditions: pre-emerge, phytotoxicity rating 0-100 at 14 days after application
Procedure, shortened: as §2

[4] = test system: ivyleaf morningglory (Ipomoea hederacea, IPOHE); assay: as above; conditions: pre-emerge, phytotoxicity rating 0-100 at 14 days after application
Procedure, shortened: as §2

[5] = test system: johnsongrass (Sorghum halepense, SORHA); assay: as above; conditions: pre-emerge, phytotoxicity rating 0-100 at 14 days after application
Procedure, shortened: as §2

[6] = test system: lambsquarters (Chenopodium album, CHEAL); assay: as above; conditions: pre-emerge, phytotoxicity rating 0-100 at 14 days after application
Procedure, shortened: as §2

[7] = test system: large crabgrass (Digitaria sanguinalis, DIGSA); assay: as above; conditions: pre-emerge, phytotoxicity rating 0-100 at 14 days after application
Procedure, shortened: as §2

[8] = test system: sicklepod (Cassia obtusifolia, CASOB); assay: as above; conditions: pre-emerge, phytotoxicity rating 0-100 at 14 days after application
Procedure, shortened: as §2

[9] = test system: velvetleaf (Abutilon theophrasti, ABUTH); assay: as above; conditions: pre-emerge, phytotoxicity rating 0-100 at 14 days after application
Procedure, shortened: as §2

[10] = test system: field corn (Zea mays L., var. Dekalb 535, CORN); assay: Pre-emerge test, crop safety; conditions: crop damage, pre-emerge, phytotoxicity rating 0-100 at 14 days after application
Procedure, shortened: as §1

[11] = test system: upland rice (Oryza sp., var. Tebonnet, RICE); assay: Pre-emerge test, crop safety; conditions: crop damage, pre-emerge, phytotoxicity rating 0-100 at 14 days after application
Procedure, shortened: as §1

[12] = test system: barnyardgrass (Echinochloa crus-galli, ECHCG); assay: Post-emerge test, greenhouse herbicide activity screening; conditions: post-emerge, phytotoxicity rating 0-100 at 14 days after application
Procedure, shortened: (§3)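 Plants grown in 10 cm pots of sandy loam mix received acetone-dissolved compounds through a moving flat-fan nozzle. Doses ranged from 15 to 1000 g ai/ha. Pre-emerge pots were seeded one day earlier, post-emerge pots 8–21 days earlier. Fourteen days on, each pot was graded 0–100 for damage.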

[13] = test system: green foxtail (Setaria viridis, SETVI); assay: as above; conditions: post-emerge, phytotoxicity rating 0-100 at 14 days after application
Procedure, shortened: as §3

[14] = test system: ivyleaf morningglory (Ipomoea hederacea, IPOHE); assay: as above; conditions: post-emerge, phytotoxicity rating 0-100 at 14 days after application
Procedure, shortened: as §3

[15] = test system: johnsongrass (Sorghum halepense, SORHA); assay: as above; conditions: post-emerge, phytotoxicity rating 0-100 at 14 days after application
Procedure, shortened: as §3

[16] = test system: lambsquarters (Chenopodium album, CHEAL); assay: as above; conditions: post-emerge, phytotoxicity rating 0-100 at 14 days after application
Procedure, shortened: as §3

[17] = test system: large crabgrass (Digitaria sanguinalis, DIGSA); assay: as above; conditions: post-emerge, phytotoxicity rating 0-100 at 14 days after application
Procedure, shortened: as §3

[18] = test system: redroot pigweed (Amaranthus retroflexus, AMARE); assay: as above; conditions: post-emerge, phytotoxicity rating 0-100 at 14 days after application
Procedure, shortened: as §3

[19] = test system: sicklepod (Cassia obtusifolia, CASOB); assay: as above; conditions: post-emerge, phytotoxicity rating 0-100 at 14 days after application
Procedure, shortened: as §3

[20] = test system: velvetleaf (Abutilon theophrasti, ABUTH); assay: as above; conditions: post-emerge, phytotoxicity rating 0-100 at 14 days after application
Procedure, shortened: as §3

[21] = test system: field corn (Zea mays L., var. Dekalb 535, CORN); assay: Post-emerge test, crop safety; conditions: post-emerge, crop damage rating 0-100 at 14 days after application
Procedure, shortened: as §2

[22] = test system: upland rice (Oryza sp., var. Tebonnet, RICE); assay: Post-emerge test, crop safety; conditions: post-emerge, crop damage rating 0-100 at 14 days after application
Procedure, shortened: as §2

Cc1c(Cl)cc(F)c(-n2c(=O)cc(C(F)(F)F)n(C)c2=O)c1NC(=O)OCc1ccc(Cl)cc1Cl [4-62]
60: Pre-emerge Herbicidal Activity ECHCG ([2]; rate 250 g ai/ha) | Pre-emerge Herbicidal Activity IPOHE ([4]; rate 63 g ai/ha) | Post-emerge Herbicidal Activity SETVI ([13]; 63 g ai/ha)
40: Post-emerge Herbicidal Activity ECHCG ([12]; 250 g ai/ha)
45: Post-emerge Herbicidal Activity CORN ([21]; 250 g ai/ha)
0: Pre-emerge Herbicidal Activity CORN ([10]; rate 63 g ai/ha)
100: Pre-emerge Herbicidal Activity AMARE ([1]; rate 63 g ai/ha) | Pre-emerge Herbicidal Activity AMARE ([1]; rate 250 g ai/ha) | Pre-emerge Herbicidal Activity SETVI ([3]; rate 250 g ai/ha) | Pre-emerge Herbicidal Activity CHEAL ([6]; rate 63 g ai/ha) | Pre-emerge Herbicidal Activity CHEAL ([6]; rate 250 g ai/ha) | Pre-emerge Herbicidal Activity CASOB ([8]; rate 250 g ai/ha) | Pre-emerge Herbicidal Activity ABUTH ([9]; rate 63 g ai/ha) | Pre-emerge Herbicidal Activity ABUTH ([9]; rate 250 g ai/ha) | Post-emerge Herbicidal Activity IPOHE ([14]; 63 g ai/ha) | Post-emerge Herbicidal Activity IPOHE ([14]; 250 g ai/ha) | Post-emerge Herbicidal Activity CHEAL ([16]; 63 g ai/ha) | Post-emerge Herbicidal Activity CHEAL ([16]; 250 g ai/ha) | Post-emerge Herbicidal Activity AMARE ([18]; 63 g ai/ha) | Post-emerge Herbicidal Activity AMARE ([18]; 250 g ai/ha) | Post-emerge Herbicidal Activity CASOB ([19]; 250 g ai/ha) | Post-emerge Herbicidal Activity ABUTH ([20]; 63 g ai/ha) | Post-emerge Herbicidal Activity ABUTH ([20]; 250 g ai/ha)
30: Pre-emerge Herbicidal Activity IPOHE ([4]; rate 250 g ai/ha) | Post-emerge Herbicidal Activity SORHA ([15]; 63 g ai/ha) | Post-emerge Herbicidal Activity SORHA ([15]; 250 g ai/ha) | Post-emerge Herbicidal Activity CORN ([21]; 63 g ai/ha) | Post-emerge Herbicidal Activity RICE ([22]; 63 g ai/ha) | Post-emerge Herbicidal Activity RICE ([22]; 250 g ai/ha)
50: Pre-emerge Herbicidal Activity SORHA ([5]; rate 250 g ai/ha) | Pre-emerge Herbicidal Activity DIGSA ([7]; rate 63 g ai/ha) | Pre-emerge Herbicidal Activity CASOB ([8]; rate 63 g ai/ha) | Post-emerge Herbicidal Activity DIGSA ([17]; 250 g ai/ha)
90: Pre-emerge Herbicidal Activity DIGSA ([7]; rate 250 g ai/ha) | Post-emerge Herbicidal Activity CASOB ([19]; 63 g ai/ha)
80: Pre-emerge Herbicidal Activity SETVI ([3]; rate 63 g ai/ha) | Post-emerge Herbicidal Activity SETVI ([13]; 250 g ai/ha)
10: Pre-emerge Herbicidal Activity ECHCG ([2]; rate 63 g ai/ha) | Pre-emerge Herbicidal Activity SORHA ([5]; rate 63 g ai/ha) | Pre-emerge Herbicidal Activity CORN ([10]; rate 250 g ai/ha) | Pre-emerge Herbicidal Activity RICE ([11]; rate 63 g ai/ha) | Post-emerge Herbicidal Activity DIGSA ([17]; 63 g ai/ha)
70: Pre-emerge Herbicidal Activity RICE ([11]; rate 250 g ai/ha)
20: Post-emerge Herbicidal Activity ECHCG ([12]; 63 g ai/ha)

COc1ccc(COC(=O)Nc2c(C)c(Cl)cc(F)c2-n2c(=O)cc(C(F)(F)F)n(C)c2=O)cc1OC [4-63]
40: Pre-emerge Herbicidal Activity IPOHE ([4]; rate 63 g ai/ha) | Pre-emerge Herbicidal Activity CASOB ([8]; rate 63 g ai/ha) | Pre-emerge Herbicidal Activity RICE ([11]; rate 63 g ai/ha)
50: Pre-emerge Herbicidal Activity SORHA ([5]; rate 250 g ai/ha)
10: Post-emerge Herbicidal Activity SORHA ([15]; 250 g ai/ha) | Post-emerge Herbicidal Activity DIGSA ([17]; 250 g ai/ha) | Post-emerge Herbicidal Activity CORN ([21]; 63 g ai/ha) | Post-emerge Herbicidal Activity RICE ([22]; 63 g ai/ha)
95: Pre-emerge Herbicidal Activity DIGSA ([7]; rate 250 g ai/ha)
30: Pre-emerge Herbicidal Activity ECHCG ([2]; rate 63 g ai/ha) | Pre-emerge Herbicidal Activity SORHA ([5]; rate 63 g ai/ha) | Post-emerge Herbicidal Activity SETVI ([13]; 250 g ai/ha) | Post-emerge Herbicidal Activity CORN ([21]; 250 g ai/ha)
60: Post-emerge Herbicidal Activity CASOB ([19]; 63 g ai/ha) | Post-emerge Herbicidal Activity RICE ([22]; 250 g ai/ha)
20: Post-emerge Herbicidal Activity ECHCG ([12]; 250 g ai/ha)
70: Pre-emerge Herbicidal Activity ECHCG ([2]; rate 250 g ai/ha) | Pre-emerge Herbicidal Activity SETVI ([3]; rate 63 g ai/ha) | Pre-emerge Herbicidal Activity DIGSA ([7]; rate 63 g ai/ha)
100: Pre-emerge Herbicidal Activity AMARE ([1]; rate 63 g ai/ha) | Pre-emerge Herbicidal Activity AMARE ([1]; rate 250 g ai/ha) | Pre-emerge Herbicidal Activity SETVI ([3]; rate 250 g ai/ha) | Pre-emerge Herbicidal Activity IPOHE ([4]; rate 250 g ai/ha) | Pre-emerge Herbicidal Activity CHEAL ([6]; rate 63 g ai/ha) | Pre-emerge Herbicidal Activity CHEAL ([6]; rate 250 g ai/ha) | Pre-emerge Herbicidal Activity CASOB ([8]; rate 250 g ai/ha) | Pre-emerge Herbicidal Activity ABUTH ([9]; rate 63 g ai/ha) | Pre-emerge Herbicidal Activity ABUTH ([9]; rate 250 g ai/ha) | Post-emerge Herbicidal Activity IPOHE ([14]; 63 g ai/ha) | Post-emerge Herbicidal Activity IPOHE ([14]; 250 g ai/ha) | Post-emerge Herbicidal Activity CHEAL ([16]; 250 g ai/ha) | Post-emerge Herbicidal Activity AMARE ([18]; 63 g ai/ha) | Post-emerge Herbicidal Activity AMARE ([18]; 250 g ai/ha) | Post-emerge Herbicidal Activity CASOB ([19]; 250 g ai/ha) | Post-emerge Herbicidal Activity ABUTH ([20]; 63 g ai/ha) | Post-emerge Herbicidal Activity ABUTH ([20]; 250 g ai/ha)
90: Pre-emerge Herbicidal Activity RICE ([11]; rate 250 g ai/ha)
0: Pre-emerge Herbicidal Activity CORN ([10]; rate 63 g ai/ha) | Post-emerge Herbicidal Activity ECHCG ([12]; 63 g ai/ha) | Post-emerge Herbicidal Activity SETVI ([13]; 63 g ai/ha) | Post-emerge Herbicidal Activity SORHA ([15]; 63 g ai/ha) | Post-emerge Herbicidal Activity DIGSA ([17]; 63 g ai/ha)
80: Post-emerge Herbicidal Activity CHEAL ([16]; 63 g ai/ha)
35: Pre-emerge Herbicidal Activity CORN ([10]; rate 250 g ai/ha)
